Experimental data as given in patent publication US5444064A, “Method of treating gastrointestinal malignancies” (Montefiore Medical Center, priority 1989, dated 1995).

Columns and labels:
SW480 cells = assay: Cytokinetic studies (cell cycle distribution by flow cytometry), SW480; format: cell-based, human
[1] = system: disseminated colorectal cancer; conditions: cited from earlier work
HT-29 cells = assay: Cytokinetic studies (cell cycle distribution by flow cytometry), HT-29; format: cell-based, human
[2] = 5-fluorouracil 50-500 uM, 24 hour incubation

## O=c1[nH]cc(F)c(=O)[nH]1 [5-fluorouracil]
SW480 cells; [2]
  depletion of G2M: nearly complete depletion of G2M
SW480 cells; 5-fluorouracil and alpha-2a-interferon alone or in combination, data not shown
  effect on cell cycle versus HT-29: qualitatively identical effects
SW480 cells; data not shown
  prolongation of the block in G0/G1: 24 h
[1]; human, in vivo
  completeness and duration of response: rarely respond completely and the duration of the response is generally short
[1]; patients with disseminated colorectal cancer
  remissions: 15-35%
[1]; versus untreated controls
  median survival: no better than that of untreated controls
HT-29 cells; [2]
  depletion of G2M: nearly complete depletion of G2M
HT-29 cells; time course, from start of incubation
  time to depletion of G2M compartment: ≤ 7 h
